Test results from patent publication US7803619B2, “Embryoid body-based screen” (Geneprotech, Inc., priority 2004, dated 2010).

Key:
[1] = test system: EB from ES cell line (ES-6) containing necdin-puromycin-IRES-β-galactosidase cassette; test: Embryoid body neurogenesis screen: necdin promoter-driven β-galactosidase expression; type: cell-based, mouse; settings: 48 h exposure
Protocol: A brief description of the procedure follows. A tagged ES cell line containing a stably integrated necdin-puromycin-IRES-β-galactosidase cassette was allowed to form EBs. One thousand cells in 200 μl media without LIF were plated in a 96-well PCR plate. On the third day, the EBs were transferred to a 96-well tissue culture plate coated with laminin. The medium was changed on the fourth day and appropriate small molecule compounds were added with each compound being assessed in triplicate. Six wells received no treatment and six wells received treatment with vehicle control (DMSO or ethanol diluted in similar manner as small molecule compounds). The cells were incubated with compounds for 48 hours, compounds removed by washing with PBS and cells allowed to grow and differentiate in media for 4 days. Cells were lysed on the fifth day and the lysates were analyzed for β-galactosidase expression. […] Two positive controls, 50 ng/ml nerve growth factor (NGF) and 1 uM retinoic acid (RA) (Sigma Chemical, St. Louis) and small molecule compounds (piperine, curcumin, rosmarinic acid, U0126, LY294002) were used for screening. Fold increase was calculated based on the respective vehicle control […] activity. […] This is not surprising since NGF is a stronger neurogenic growth factor than is RA. […]
An ES cell line (ES-6; Preliminary Studies Section C.2.) containing a stably integrated necdin-puromycin-IRES-β-galactosidase cassette was allowed to form EB. […] The medium was changed on the fourth day and appropriate small molecule compounds were added with each compound being assessed in triplicate. […] Cells were lysed on the fifth day and the lysates were analyzed for β-galactosidase expression. […] Fold increase was calculated based on the respective vehicle control β-galactosidase activity. […]
After addition of puromycin to the media, neuronal cells are the anticipated survivors and other cell types are expected to be eliminated. Since activity of the necdin promoter confers β-galactosidase expression, a quantitative measurement of β-galactosidase activity is performed. […]

[2] = test system: endothelial cell culture system; settings: cited from earlier work
chorioallantoic membrane = settings: cited from earlier work
EB = settings: cited from earlier work
murine ES cells = settings: cited from earlier work
[3] = test system: myeloid leukemia HL60 cells; settings: cited from earlier work

## CC1=C(/C=C/C(C)=C/C=C/C(C)=C/C(=O)O)C(C)(C)CCC1 [RA, retinoic acid]
[1]; positive control, 1 uM
  Fold increase in neurogenesis (β-galactosidase activity relative to respective vehicle control): 11 fold

## O=C(/C=C/C=C/c1ccc2c(c1)OCO2)N1CCCCC1 [piperine]
[1]; small molecule compound at 10 μM, lysed on fifth day after removal
  Fold increase in neurogenesis (β-galactosidase activity relative to respective vehicle control): 3.3 fold

## O=C1CCC(N2C(=O)c3ccccc3C2=O)C(=O)N1 (centres unmarked) [thalidomide]
[2]
  Anti-angiogenic effect: no anti-angiogenic effect
Chorioallantoic membrane
  Anti-angiogenic effect: no anti-angiogenic effect
EB
  Anti-angiogenic effect: had anti-angiogenic effect

## O=C1O[C@H]([C@@H](O)CO)C(O)=C1O [vitamin C, ascorbic acid]
Murine ES cells
  Number of cardiac myocytes showing rhythmic contractile activity, positive for sarcomeric myosin and alpha-actinin: markedly increased

## boswellic acid acetate
[3]
  Differentiation into monocyte-like cells: induces differentiation

## nerve growth factor [NGF]
[1]; positive control, 50 ng/ml
  Fold increase in neurogenesis (β-galactosidase activity relative to respective vehicle control): 30 fold
